Data: publication PMC10002517, “Inhibition of Transglutaminase 2 as a Therapeutic Strategy in Celiac Disease—In Vitro Studies in Intestinal Cells and Duodenal Biopsies” (International Journal of Molecular Sciences, 2023)

Experiments:
[1] = biological target: T1, TG2 in Caco-2 cell lysates (Homo sapiens, UniProt P21980); assay: Transglutaminase activity in Caco-2 whole cell lysates (5BP cross-linking); assay type: biochemical; settings: 10 µM inhibitor (b1); lysate of differentiated Caco-2 cells incubated with 5BP and inhibitor overnight; mean ± SD, n = 3
T1 construct: endogenous in cells; host or cells: Caco-2 (differentiated; IFN-γ-stimulated in the monolayer assay)
T1 sequence (P21980 1-687): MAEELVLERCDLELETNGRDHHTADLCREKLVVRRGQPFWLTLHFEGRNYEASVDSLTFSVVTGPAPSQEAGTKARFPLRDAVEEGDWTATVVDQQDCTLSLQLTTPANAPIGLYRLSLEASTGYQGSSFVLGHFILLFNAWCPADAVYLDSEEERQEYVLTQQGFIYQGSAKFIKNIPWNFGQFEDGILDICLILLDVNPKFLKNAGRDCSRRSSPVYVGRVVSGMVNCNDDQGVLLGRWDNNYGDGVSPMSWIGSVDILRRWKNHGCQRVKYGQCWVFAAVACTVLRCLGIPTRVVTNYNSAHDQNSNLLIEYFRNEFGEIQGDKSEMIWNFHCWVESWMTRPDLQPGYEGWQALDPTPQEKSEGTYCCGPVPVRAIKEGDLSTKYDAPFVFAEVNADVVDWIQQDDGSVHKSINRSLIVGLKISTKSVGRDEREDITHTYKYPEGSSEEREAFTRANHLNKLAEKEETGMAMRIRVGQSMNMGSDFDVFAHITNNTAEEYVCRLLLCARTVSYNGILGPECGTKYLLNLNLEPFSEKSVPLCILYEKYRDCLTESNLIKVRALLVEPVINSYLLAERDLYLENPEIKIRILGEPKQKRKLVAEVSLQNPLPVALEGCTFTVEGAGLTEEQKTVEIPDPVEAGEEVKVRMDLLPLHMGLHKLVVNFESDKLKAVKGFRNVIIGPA
Experimental: The method to investigate TG2 activity from whole cell lysates was adapted from Lin et al.. In brief, 20 µg protein per cavity on the 96-well plate were incubated in 50 mM Tris, 1 mM EDTA, 5 mM calcium chloride (pH 7.5) buffer in the presence of 500 µM 5BP (5-biotinamidopentylamine, Thermo Fisher Scientific, Langenselbold, Germany) for the indicated time. After incubation, the plate was washed three times with PBS + 0.05% Tween. After blocking with 5% BSA in PBS for 1 h, the plate was incubated with 2 µg/mL streptavidin-Alexa Fluor 488 (Thermo Fisher Scientific) in 5% BSA. After 3 washing steps with PBS + 0.05% Tween, fluorometric evaluation was performed using a Clariostar Plus (BMG Labtech) microplate reader (no well scan mode, excitation 488 nm, emission 535 nm, fixed gain: 2000).

[2] = biological target: T2, extracellular TG2 on Caco-2 cells (Homo sapiens, UniProt P21980); assay: Extracellular TG2 activity on confluent Caco-2 cell monolayers (5BP cross-linking); assay type: cell-based; settings: n = 4; for reduction of TG2 activity on the cell surface: IFN-γ-stimulated Caco-2 cells, 5BP 3 h
T2 construct: endogenous in cells; host or cells: Caco-2 (differentiated; IFN-γ-stimulated in the monolayer assay)
T2 sequence (P21980 1-687): T1 sequence (P21980 1-687)
Experimental: The method was adapted from Yi et al.. To induce TG2 expression, Caco-2 cells were stimulated with IFN-γ 1000 IU/mL for 48 h. Then, cells were washed three times with warm PBS and incubated with the substrate 5BP for 3 h at 37 °C in 50 mM Tris and 1 mM EDTA (pH 7.5). The substances ERW1041, PX-12 and DTT were added to this solution when indicated. After incubation, cells were washed three times with PBS, fixed with 4% paraformaldehyde for 10 min and blocked with 5% BSA in PBS at 4 °C overnight. Then, cells were incubated at room temperature with streptavidin-Alexa488 (Thermo Scientific, 4 µg/mL) in 5% BSA in the dark for 1 h, followed by three washes with PBS. Fluorometric quantitation was conducted using a FLUOstar Optima microplate reader (BMG Labtech, filter settings: excitation 485 nm, emission 525 nm). Manual gain adjustment was performed, setting the well with the most intense signal as 95%. In all experiments, data were background subtracted against a control without 5BP substrate.

Caco-2 cells = assay: Resazurin-based cell viability assay (PrestoBlue HS); design: species or system human; settings: confluent Caco-2 cells, 24 h in medium, n = 3
Experimental: The cell viability of Caco-2 cells was examined using PrestoBlue HS (A13261, (Thermo Fisher Scientific). In brief, Caco-2 cells (7–8 days after confluency) were incubated with PX-12 or ERW1041 at the indicated concentrations for 24 h in full medium. As a positive control, cells were incubated with 4% PFA for 10 min. After washing with PBS, cells were incubated with PrestoBlue HS diluted 1:10 in culture medium for 2 h at 37 °C. Fluorometric examination was conducted using a Clariostar Plus (no well scan mode, bottom optic measurement, excitation 545 nm, emission 600 nm, fixed gain: 800). Every experiment was performed in duplicates with at least three technical replicates. Normalization was performed against conditions, where cells were not treated with TG2 inhibitors.

[3] = tested on: uptake of P56-88 by Caco-2 cells; assay: Epithelial uptake of P56-88 by Caco-2 cells (confocal microscopy); assay type: cell-based, human; settings: confocal microscopy
Experimental: For microscopic evaluation, Caco-2 cells were seeded on polymer-covered µ-slides (80826, Ibidi) and incubated for 1 h with labeled gliadin peptides in the presence of TG2 inhibitors. After three washes with PBS, cells were fixed with 4% paraformaldehyde. Nuclear staining was performed for 10 min using Hoechst fluorescent stain (1:1000 in PBS). Imaging was done using a confocal laser scanning microscope (TE2000-E, Nikon) and a 60× Plan Apo (NA 1.41) immersion oil objective. Processing of z-stacks, including 3D reconstruction, was performed using ImageJ [46]. For quantitation, z-stack images were taken with the same microscope settings. Using ImageJ, maximum intensity projections were obtained of the z-stack images, and the fluorescence intensity was measured within the whole image.

[4] = tested on: transepithelial passage of P31-43 in Caco-2 cells; assay: Transepithelial transport of promofluor-conjugated gliadin peptide P31-43 across Caco-2 monolayers (fluorometry); assay type: cell-based, human; settings: 1 µM and 100 µM inhibitor; 3 h
Experimental: Transepithelial transport of immunogenic and toxic gliadin peptides were examined in Caco-2 cells 7–14 days after confluency. Caco-2 cells were seeded on semi-permeable transwell supports (ThinCert, culture surface: 33.6 mm², pore size: 0.4 µm) in 24-well plates (Greiner Bio One, Pleidelsheim, Germany). Prior to the transport experiments, the integrity of the cell monolayer was tested by measuring the transepithelial electric resistance (TEER) using a volt-ohm meter (Millipore, Schwalbach, Germany). Monolayers with insufficient TEER (<350 Ω/cm^2) were omitted. The synthesis and purification of promofluor-conjugated gliadin peptides were described elsewhere. Cells were either incubated with the immunogenic peptide P56-88 ([…]) or the toxic gliadin peptide P31-43 (LGQQQPFPPQQPY), 7 µg/mL each, in Hank’s balanced salt solution (HBSS) for 3 h. To investigate the role of TG2 on the transport of gliadin peptides, incubation was performed in the presence of ERW1041 and PX-12. After 3 h, basal and apical supernatants were collected, and the relative fluorescence of the basal compartment was quantified using a FLUOstar Optima (BMG Labtech) microplate reader. Background subtraction was performed against conditions, where no labeled peptides were used. Normalization was performed against conditions, where no inhibitors were used.

[5] = up to a concentration of 100 µM
[6] = 1 h incubation with peptide and inhibitor, n = 3

| Structure (SMILES) | TG2 activity in Caco-2 cell lysates [1] | inhibition of TG2 on confluent Caco-2 monolayers ([2]; concentrations between 10 nM and 100 µM) | cell viability (Caco-2 cells; 200 µM and 500 µM) | cell viability (Caco-2 cells; [5]) | uptake of P56-88 by Caco-2 cells [3, 6] | reduction of TG2 activity on the cell surface ([2]; 10 µM) | reduction of TG2 activity on the cell surface ([2]; 100 µM) | transport of P31-43 [4] | uptake of P56-88 by Caco-2 cells ([3]; 100 µM inhibitor, 1 h) |
| --- | --- | --- | --- | --- | --- | --- | --- | --- | --- |
| CCC(C)SSc1ncc[nH]1 (stereo not shown) [PX-12, 2-[(1-methylpropyl)dithio]-1H-imidazole] | 12 ± 7% | did not observe any significant inhibition of TG2 | significantly reduced cell viability | did not affect cell viability | did not affect the uptake of P56-88 |  |  |  |  |
| O=C(NC[C@@H]1CC(Br)=NO1)[C@@H]1CCCN1C(=O)OCc1cnc2ccccc2c1 [ERW1041] | 45 ± 19% |  | significantly reduced cell viability | did not affect cell viability | reduced the uptake of P56-88 in a dose-dependent manner | about 32% | ~70% | remained unaffected | nearly absent |
